The supplement of paper PMC11616607

Experiments:
Assay in all cases: drug sensitivity score (DSS) from 5-point dose-response viability curve (DSS (area-under-curve based score)); higher = more sensitive (stronger growth inhibition or killing); extreme values may be limits of the assay
Details in all cases: exposure time: 72 h; concentration range: 5 concentrations over 10,000-fold range
CAOV3 = test system: CAOV3
Summary of the method: (§1)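 Drugs in DMSO or water were acoustically dispensed (Echo 550) into 384-well plates at five concentrations across a 10,000-fold range. Ovarian cancer and normal ovarian cells (1,500 per well) were then added, incubated for 3 days at 37°C with 5% CO2, and read for viability by CellTiter-Glo luminescence on a PHERAstar FS. From these readings, Breeze software derived a drug sensitivity score per cell line and drug, with higher values meaning more sensitive and zero meaning no response.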

COV318 = test system: COV318
Summary of the method: as §1

COV362 = test system: COV362
Summary of the method: as §1

HOSE1C = test system: HOSE1C
Summary of the method: as §1

HOSE2C = test system: HOSE2C
Summary of the method: as §1

JHOS2 = test system: JHOS2
Summary of the method: as §1

Kuramochi = test system: Kuramochi
Summary of the method: as §1

OV90 = test system: OV90
Summary of the method: as §1

OVCAR4 = test system: OVCAR4
Summary of the method: as §1

OVCAR5 = test system: OVCAR5
Summary of the method: as §1

OVCAR8 = test system: OVCAR8
Summary of the method: as §1

Ovsaho = test system: Ovsaho
Summary of the method: as §1

SMILES | drug sensitivity score (CAOV3) | drug sensitivity score (COV318) | drug sensitivity score (COV362) | drug sensitivity score (HOSE1C) | drug sensitivity score (HOSE2C) | drug sensitivity score (JHOS2) | drug sensitivity score (Kuramochi) | drug sensitivity score (OV90) | drug sensitivity score (OVCAR4) | drug sensitivity score (OVCAR5) | drug sensitivity score (OVCAR8) | drug sensitivity score (Ovsaho)
O=S(=O)(c1cccc2c(O)nccc12)N1CCCNCC1 [Hydroxyfasudil] | 0 | 0.1 | 0 | 0 | 0 | 0.4 | 0 | 0 | 0 | 0 | 0 | 0
NC(=O)NO [Hydroxyurea] | 1.1 | 1.7 | 0.1 | 8.2 | 8 | 3.3 | 0 | 2.8 | 0 | 2.9 | 5.1 | 2.3
COc1cc2c(cc1-c1c(C)noc1C)ncc1[nH]c(=O)n([C@H](C)c3ccccn3)c12 [I-BET151] | 11.9 | 1.9 | 0.6 | 13.8 | 11.3 | 4.5 | 9.2 | 8.2 | 6.9 | 7.1 | 9.5 | 12
O=C(O)c1ccc(O)c2ncccc12 [IOX-1] | 1.2 | 0 | 0 | 4.6 | 3.4 | 0 | 1.6 | 3.2 | 1.5 | 1 | 3 | 1.6
O=C(O)CNC(=O)c1c(O)c2ccccc2n(Cc2ccccc2)c1=O [IOX-2] | 0 | 0 | 0 | 0.1 | 0 | 0 | 0 | 0 | 0 | 0 | 0 | 0
C=CC(=O)N1CCC[C@@H](n2nc(-c3ccc(Oc4ccccc4)cc3)c3c(N)ncnc32)C1 [Ibrutinib] | 3 | 0 | 0.5 | 0 | 0 | 0 | 2.8 | 0 | 1.5 | 3.1 | 0 | 2.5
C#Cc1cccc(Nc2ncnc3cc4c(cc23)OCCOCCOCCO4)c1 [Icotinib] | 5.7 | 0.2 | 0 | 0 | 0 | 0.4 | 0.2 | 0 | 1.7 | 4.3 | 0 | 1.1
CC(=O)[C@]1(O)Cc2c(O)c3c(c(O)c2[C@@H](O[C@H]2C[C@H](N)[C@H](O)[C@H](C)O2)C1)C(=O)c1ccccc1C3=O [Idarubicin] | 12 | 6.1 | 4.8 | 14.2 | 13.7 | 7.1 | 5.1 | 10.7 | 6.3 | 7.7 | 10.3 | 11.7
COc1cc(C(=O)O)ccc1NC(=O)[C@@H]1N[C@@H](CC(C)(C)C)[C@](C#N)(c2ccc(Cl)cc2F)[C@H]1c1cccc(Cl)c1F [Idasanutlin] | 0 | 0 | 0 | 16 | 10.5 | 0 | 0 | 0 | 1.2 | 0.7 | 3.3 | 0
CC[C@H](Nc1ncnc2[nH]cnc12)c1nc2cccc(F)c2c(=O)n1-c1ccccc1 [Idelalisib] | 0.8 | 0.7 | 1.3 | 0.1 | 1 | 0.9 | 5.8 | 0 | 2.3 | 2.7 | 0.2 | 5.7
CC(C)Cn1cnc2c(N)nc3ccccc3c21 [Imiquimod] | 0 | 0 | 0 | 0 | 0 | 0.5 | 0 | 0 | 0 | 0 | 0.1 | 0
O=C(Nc1ccncc1)C(=O)c1cn(Cc2ccc(Cl)cc2)c2ccccc12 [Indibulin] | 7.2 | 2.5 | 1.8 | 20.1 | 18.3 | 6.8 | 7.2 | 5.9 | 5.5 | 5.7 | 6.4 | 7.9
CCN1CCN(c2ccc(Nc3cc(N(C)C(=O)Nc4c(Cl)c(OC)cc(OC)c4Cl)ncn3)cc2)CC1 [Infigratinib] | 0 | 0 | 0 | 0 | 0 | 0 | 0 | 0 | 0 | 0 | 0 | 0
CC(C)NC[C@@H](C(=O)N1CCN(c2ncnc3c2[C@H](C)C[C@H]3O)CC1)c1ccc(Cl)cc1 [Ipatasertib] | 1.9 | 0.1 | 0 | 2.7 | 4.4 | 0.1 | 2.6 | 0.5 | 0 | 3 | 0.5 | 1.6
